Entries after “also recorded” stand apart in the source; their conditions may differ.
What was measured:
pig-a gene [1] = assay: pig-a mutant erythrocyte frequency measured with and without aerolysin selective lysis, using counting beads (Example 3); format: in vivo, Sprague-Dawley rat; conditions: female rats; ENU 100 mg/kg/day or DMBA 40 mg/kg/day on three days; blood 6 weeks thereafter; vs untreated; FIG. 5
Protocol: Blood samples are obtained and processed (labeling with fluorochromes) as described above. Specimens were subsequently divided to provide pig-a mutant erythrocyte frequency measurements made with and without the use of aerolysin. To each of the samples, a small volume of high density microsphere suspension is added. Preferably, between about 10^3 to about 10^6 microspheres/specimen are added. Suitable microspheres are commercially available from a number of sources, including Becton Dickinson, Molecular Probes, and Polysciences. After mixing each sample to ensure a homogeneous suspension, a small aliquot of each cell/microsphere solution is transferred to a tube containing a balanced salt solution such that the resulting dilution yields a density of beads and cells which is low enough so that the rate of particles passing through the detection device yields accurate measurements (e.g., less than about 7,000 events per second for a Becton Dickinson FACSCalibur; higher densities may lead to excessive coincidence, which is multiple particles simultaneously at the fluid stream-laser beam intersection). The other (undiluted) specimen is treated with aerolysin to lyse the majority of non-mutant erythrocytes and reticulocytes. Reticulocyte:bead ratios are measured for both diluted and undiluted/aerolysin-treated samples using, e.g., an optical detection system of the type described above. From these ratios, it is possible to calculate the frequency of mutant reticulocytes per 10^6 reticulocytes.
For example, a small volume of a bead stock suspension (10 μl) is added to a suspension of high density cells that have been stained for a mutation frequency determination (1 ml). A small fraction of the cell/bead suspension is then transferred to a tube containing an isotonic solution such that the resulting density of beads and cells is low enough to prevent excessive coincidence. Flow cytometric analysis then allows for determination of the reticulocyte to bead ratio; for example 7,500 reticulocytes and 100 beads would indicate a ratio of 75 reticulocytes per bead. The aerolysin-treated specimen (with a majority of non-mutant erythrocytes and reticulocytes lysed due to aerolysin) is subsequently analyzed. Even while the majority of erythrocytes and reticulocytes have been lysed, it is still possible to analyze 10^6 or more “virtual reticulocytes” by setting the stop mode so that the proportionate number of beads (which are unaffected by aerolysin) have been interrogated. In this example, the stop mode would be set so that data accumulate until 10^6 divided by 75 beads have been acquired, i.e., 13,333 beads. In this manner, it is possible to score the number of mutant reticulocytes per 13,333 beads, or in other words, per 10^6 virtual reticulocytes. […]

pig-a gene [2] = assay: mutant erythrocytes versus mutant reticulocytes, FSC and FL1 thresholding (Example 5); format: in vivo, rat; conditions: rats, 100 mg ENU/kg/day or 40 mg DMBA/kg/day three times in one week; 4 weeks post-exposure; vs untreated; FIG. 7
Source text: In practice, this means the mutation frequency for entire erythrocyte population and a mutation frequency for the reticulocyte fraction can each be efficiently determined by analyzing each stained blood specimen two times: once at high density with FL1 thresholding, and a second time upon dilution using a FSC threshold setting. In this manner it is possible to efficiently interrogate enough cells (e.g. 10^6 reticulocytes and also 10^6 total erythrocytes) for accurate measures of mutant frequency (see FIGS. 4A-B).
For this experiment, rats were untreated, or exposed to 100 mg ENU/kg/day or 40 mg DMBA/kg/day. These exposures were performed three times in one week (M, W, F). Blood was collected from the tail vein of these animals 4 weeks post-exposure. Blood samples were stained according to the present invention. Specifically, high density blood specimens were contacted with anti-CD59-PE to differentially label mutant and non-mutant erythrocytes, and biotinylated anti-CD61 followed by streptavidin-Cy5-PE as a platelet-specific label used to exclude these particles from analysis. After a washing steps to remove unbound antibodies and streptavidin-Cy5-PE, cells were resuspended in a thiazole orange solution (0.1 μg/ml) and allowed to incubate at room temperature for about 30 minutes. Specimens were placed on ice and protected from light until flow cytometric analysis (within about 4 hours). Cells were analyzed at low density with FSC thresholding, and also at high density with FL1 thresholding. As described in Example 2, this provided mutant frequencies in both the total erythrocyte and the reticulocyte populations.

pig-a gene [3] = assay: time course of CD59-negative reticulocyte frequency with FL1 thresholding (Example 4); format: in vivo, Sprague Dawley rat
Source text: In this case, it is possible to set the threshold parameter to the nucleic acid dye-associated fluorescence channel (e.g., FL1 for thiazole orange), as opposed to the more common forward scatter trigger. When set sufficiently high (that is, above the fluorescence intensity of mature erythrocytes), this can restrict analysis to reticulocytes.
Rather, it must be coupled with the preparation of very high density specimens. When these two adjustments are made, much quicker data acquisition rates are achieved. For instance, by eliminating mature erythrocytes with an FL1 threshold and analyzing specimens prepared at very high cell densities (for example 3×10^8/ml), it is possible to reduce the time needed to acquire 10^6 reticulocytes from 80 minutes to about 5 to 15 minutes.
The use of serial blood specimens also facilitated an assessment of the influence of blood harvest time. For this experiment, Sprague Dawley rats were treated with either vehicle or […] on three days (M, W, F). Blood was collected from the tail vein of these animals before treatment and over a 5 week post-exposure period. After two washing steps, high density blood samples were stained according to the present invention. […] Cells were analyzed according to the FL1 thresholding technique described in Example 2.

pig-a gene [4] = assay: three-color flow cytometric scoring of pig-a mutant (CD59-negative) erythrocytes in blood of treated rats (Example 1); format: in vivo; conditions: rat, 100 mg/kg/day for three days at 48 hr intervals; blood several weeks after final administration; FIG. 3E
Protocol: Whole blood specimens (EDTA as anticoagulant) were obtained from the tail vein of vehicle- or ethyl-N-nitrosourea (ENU) treated rats (100 mg/kg/day for three days at 48 hr intervals; blood collected several weeks after the final administration). […] Thereafter, cells were contacted with anti-CD59-PE to differentially label mutant and non-mutant erythrocytes, and biotinylated anti-CD61 followed by streptavidin-Cy5-PE as a platelet-specific label used to exclude these particles from analysis. After washing steps to remove unbound antibodies and unbound streptavidin-Cy5-PE, cells were resuspended in a thiazole orange solution (0.1 μg/ml). Specimens were incubated at room temperature for about 30 minutes, and thereafter were placed on ice until flow cytometric analysis occurred (within about 4 hours).
As shown by FIGS. 3A-E, the labeling procedure was able to successfully discriminate mature erythrocytes and reticulocytes from other cell types, as well as from platelets. Furthermore, it was capable of providing high fluorescent resolution between CD59-negative and CD59-positive erythrocytes, thus facilitating quantification of mutant erythrocyte frequency.
The flow cytometry data acquisition/analysis software (CellQuest v3.3) allowed for configuring alternative gating strategies.

Cc1c2ccccc2c(C)c2c1ccc1ccccc12 [DMBA, 7,12-dimethyl-1,2-benz[a]anthracene]
mutant erythrocyte (CD59-negative) frequency, analysis with aerolysin to enrich for mutants (pig-a gene [1]): significant increases
mutant erythrocyte (CD59-negative) frequency, analysis without aerolysin (pig-a gene [1]): significant increases
frequency of CD59-negative erythrocytes (total erythrocyte population) (pig-a gene [2]): greatly elevated
frequency of CD59-negative reticulocytes (pig-a gene [2]): greatly elevated

CCN(N=O)C(N)=O [ENU, ethyl-N-nitrosourea]
mutant erythrocyte (CD59-negative) frequency, analysis with aerolysin to enrich for mutants (pig-a gene [1]): significant increases
mutant erythrocyte (CD59-negative) frequency, analysis without aerolysin (pig-a gene [1]): significant increases
CD59- (mutant) reticulocyte frequency (pig-a gene [3]; rats, 100 mg ENU/mg/day on three days, 5 week post-exposure period, three animals, vs vehicle, FIG. 6): greatly elevated; also recorded: markedly elevated
time of maximal mutant reticulocyte frequency (pig-a gene [3]; two of the three ENU-treated animals (E2 and E3), animal E1 continued to rise through week 5): 4 week
frequency of CD59-negative erythrocytes (total erythrocyte population) (pig-a gene [2]): greatly elevated
frequency of CD59-negative reticulocytes (pig-a gene [2]): greatly elevated
frequency of mutant (CD59-negative) erythrocytes (pig-a gene [4]): relatively high frequency of mutant erythrocytes

— US8062860B2, “Kit for measuring in vivo mutation frequency at an endogenous gene locus” (Litron Laboratories, Ltd., priority 2006, dated 2011)
